Experimental data as given in ChEMBL document CHEMBL1201862, “PubChem BioAssay data set” (2004).
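Cultured in 96-well plates, cells were exposed to test compound for 48 hours across five concentrations. Abbreviation: GI50, concentration required for 50% inhibition of growth.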 The source made the active and inactive calls. Rule as the data show it: active = GI50 up to about 1.1 µM and inactive = higher.

Key:
Experiment in all cases: growth of human tumour cells (NCI), 48 h
U-251 = tested on: U-251
SK-MEL-5 = tested on: SK-MEL-5
SN12C = tested on: SN12C
SK-OV-3 = tested on: SK-OV-3
SF-268 = tested on: SF-268
HT-29 = tested on: HT-29
IGROV-1 = tested on: IGROV-1
MDA-MB-231 = tested on: MDA-MB-231
Malme-3M = tested on: Malme-3M
NCI-H460 = tested on: NCI-H460
DU-145 = tested on: DU-145
KM12 = tested on: KM12
SF-295 = tested on: SF-295
OVCAR-8 = tested on: OVCAR-8
NCI-H522 = tested on: NCI-H522
SF-539 = tested on: SF-539
HOP-92 = tested on: HOP-92
UACC-257 = tested on: UACC-257
RXF 393 = tested on: RXF 393

Measured: GI50

O=C(NC(CS)C(=O)O)c1c2ccccc2nc2ccccc12 (configuration not stated)
inactive: U-251 75 µM | SK-MEL-5 3.28 µM | SN12C > 100 µM | SK-OV-3 95.3 µM | SF-268 > 100 µM | HT-29 14.5 µM | IGROV-1 38 µM | MDA-MB-231 76.6 µM | Malme-3M 15.2 µM | NCI-H460 23.6 µM | DU-145 30.7 µM | KM12 24.8 µM | SF-295 21.5 µM | OVCAR-8 49.1 µM | NCI-H522 31.1 µM | SF-539 > 100 µM | HOP-92 > 100 µM | UACC-257 13.7 µM

COc1c(C)c(C/C=C(\C)CCCCO[Si](C(C)C)(C(C)C)C(C)C)c(OC)c2ccccc12
inactive: U-251 > 100 µM | SK-MEL-5 > 100 µM | SN12C > 100 µM | SK-OV-3 > 100 µM | SF-268 > 100 µM | HT-29 > 100 µM | IGROV-1 > 100 µM | RXF 393 > 100 µM | MDA-MB-231 > 100 µM | NCI-H460 > 100 µM | DU-145 > 100 µM | KM12 > 100 µM | SF-295 > 100 µM | OVCAR-8 > 100 µM | NCI-H522 > 100 µM | SF-539 > 100 µM | HOP-92 > 100 µM | UACC-257 > 100 µM

N#Cc1c(-c2ccc(Cl)cc2)c(C#N)c(=O)n(NS(=O)(=O)c2ccccc2)c1-c1ccccc1
inactive: U-251 > 25 µM | SK-MEL-5 > 25 µM | SN12C > 25 µM | SK-OV-3 > 25 µM | RXF 393 > 25 µM | MDA-MB-231 > 25 µM | NCI-H460 > 25 µM | SF-295 > 25 µM | SF-539 > 25 µM | HOP-92 > 25 µM | UACC-257 > 25 µM

COc1ccc(C(C)Nc2cc(OC)c(OC)c(OC)c2)cc1 (configuration not stated)
inactive: U-251 2.75 µM | SK-MEL-5 2.54 µM | SN12C 7.71 µM | SK-OV-3 4.4 µM | SF-268 2.9 µM | HT-29 3.57 µM | IGROV-1 7.13 µM | RXF 393 3.27 µM | Malme-3M 3.68 µM | NCI-H460 3.03 µM | KM12 2.63 µM | SF-295 2.3 µM | OVCAR-8 7.16 µM | NCI-H522 2.51 µM | SF-539 3.1 µM | HOP-92 1.56 µM | UACC-257 3.27 µM

COc1c(C)c2c(c3c1c(=O)c1ccccc1n3C)C=CC(C)(C)O2
inactive: U-251 21.8 µM | SK-MEL-5 15.3 µM | SN12C 30.2 µM | SK-OV-3 12.7 µM | SF-268 26.4 µM | HT-29 14 µM | IGROV-1 30.3 µM | RXF 393 51.5 µM | Malme-3M 25.8 µM | NCI-H460 18.7 µM | KM12 17.9 µM | SF-295 17.9 µM | OVCAR-8 25.6 µM | NCI-H522 20.9 µM | SF-539 19.3 µM | HOP-92 31.9 µM | UACC-257 28.9 µM

CCOC(=O)C1N(S(=O)(=O)c2ccc(C)cc2)CCC12C(c1ccc(OC)c(OC)c1)=Nc1ccccc12 (configuration not stated)
inactive: U-251 > 100 µM | SK-MEL-5 > 100 µM | SN12C > 100 µM | SK-OV-3 > 100 µM | SF-268 47.8 µM | HT-29 > 100 µM | IGROV-1 > 100 µM | RXF 393 49.3 µM | Malme-3M > 100 µM | NCI-H460 > 100 µM | KM12 > 100 µM | SF-295 > 100 µM | OVCAR-8 > 100 µM | NCI-H522 > 100 µM | SF-539 > 100 µM | HOP-92 28.5 µM | UACC-257 > 100 µM

COc1ccc(C(=O)O)c(Cc2ccc3ccccc3c2)c1
inactive: U-251 > 100 µM | SK-MEL-5 > 100 µM | SN12C > 100 µM | SK-OV-3 > 100 µM | SF-268 > 100 µM | HT-29 > 100 µM | IGROV-1 > 100 µM | RXF 393 > 100 µM | Malme-3M > 100 µM | NCI-H460 > 100 µM | KM12 > 100 µM | SF-295 > 100 µM | OVCAR-8 > 100 µM | NCI-H522 > 100 µM | SF-539 > 100 µM | HOP-92 > 100 µM | UACC-257 > 100 µM

CC(C)CCC[C@@H](C)C1CCC2[C@@H]3CCC4CC(CCC=C(c5cc(Cl)c(OC(=O)c6ccccc6)c(C(=O)O)c5)c5cc(Cl)c(OC(=O)c6ccccc6)c(C(=O)O)c5)CC[C@]4(C)C3CC[C@@]21C (some centres not stated)
inactive: U-251 > 100 µM | SK-MEL-5 28.8 µM | SN12C > 100 µM | SK-OV-3 > 100 µM | HT-29 > 100 µM | IGROV-1 34.8 µM | RXF 393 > 100 µM | MDA-MB-231 12.6 µM | Malme-3M 64.7 µM | NCI-H460 > 100 µM | DU-145 > 100 µM | KM12 > 100 µM | OVCAR-8 > 100 µM | NCI-H522 > 100 µM | SF-539 > 100 µM | HOP-92 28.1 µM | UACC-257 58.2 µM

CN(C)CC1CC/C(=C\c2ccc3c(c2)OCO3)C1=O (configuration not stated)
inactive: U-251 18.3 µM | SK-MEL-5 14.2 µM | SN12C 7.89 µM | SK-OV-3 > 43.1 µM | SF-268 11.2 µM | HT-29 14.5 µM | IGROV-1 9.75 µM | RXF 393 15.7 µM | MDA-MB-231 2.38 µM | Malme-3M 9.46 µM | NCI-H460 19.5 µM | DU-145 7.66 µM | KM12 6.79 µM | SF-295 23.1 µM | OVCAR-8 8.61 µM | NCI-H522 3.89 µM | SF-539 16.3 µM | HOP-92 15.1 µM | UACC-257 8.97 µM

CCCCCCCCCCCCCP(=O)(O)O
inactive: U-251 45.2 µM | SK-MEL-5 > 100 µM | SN12C > 100 µM | SK-OV-3 > 100 µM | SF-268 > 100 µM | HT-29 > 100 µM | IGROV-1 > 100 µM | RXF 393 35.5 µM | Malme-3M > 100 µM | NCI-H460 > 100 µM | KM12 > 100 µM | SF-295 > 100 µM | OVCAR-8 > 100 µM | NCI-H522 > 100 µM | SF-539 > 100 µM | HOP-92 > 100 µM | UACC-257 > 100 µM

CCC(/C(=N\Nc1c(Cl)cc(Cl)cc1Cl)c1ccccc1)n1ccnc1C (configuration not stated)
inactive: U-251 12.8 µM | SK-MEL-5 7.91 µM | SN12C 11.9 µM | SK-OV-3 18.4 µM | SF-268 17.2 µM | HT-29 8.05 µM | IGROV-1 11 µM | RXF 393 > 10 µM | Malme-3M 11.7 µM | NCI-H460 11 µM | KM12 10.4 µM | SF-295 11.5 µM | OVCAR-8 12.9 µM | NCI-H522 4.55 µM | SF-539 16.2 µM | HOP-92 4.06 µM | UACC-257 14.5 µM

N#CCCN(CCC#N)c1ccc(C(Sc2ccccc2)C(NC(=O)c2cc([N+](=O)[O-])ccc2Cl)C(=O)Sc2ccccc2)cc1 (configuration not stated)
inactive: U-251 1.23 µM | SK-MEL-5 3.27 µM | SN12C 1.88 µM | SK-OV-3 5.42 µM | SF-268 2.35 µM | HT-29 4.1 µM | IGROV-1 1.92 µM | RXF 393 2.09 µM | Malme-3M 7.33 µM | NCI-H460 4.41 µM | KM12 3.53 µM | SF-295 3.37 µM | OVCAR-8 1.96 µM | NCI-H522 2.36 µM | SF-539 1.8 µM | HOP-92 5.58 µM | UACC-257 8.07 µM
